Results taken from US20260200850A1, “CRYSTALLINE FORMS OF A PIPERIDINE INHIBITOR OF SLC6A19 FUNCTION” (Jnana Therapeutics Inc., priority 2022, published 2026).
Values after ≈ are worked out from the molar mass of the structure shown.

Test: Solubility measurements of polymorphic Form I and II in biorelevant fluids
Type: physicochemical
Conditions: for solubility at 1.5 h / solubility at 3 h / solubility at 24 h: thermodynamic from solid
From the text: Example 3: Solubility Measurements of Form I and Form II

## NC(=O)N1CCC[C@@H](N(C(=O)NCc2ccc(OC(F)(F)F)cc2F)C2CC2)C1 [Form I, (R)-3-(1-cyclopropyl-3-(2-fluoro-4-(trifluoromethoxy)benzyl)ureido) piperidine-1-carboxamide]
5% HPBCD/2% TPGS, 25 °C, aqueous with cosolvent or surfactant or cyclodextrin, 1.5 h
  solubility at 1.5 h: 4960 µg/mL (≈ 11900 µM)
5% HPBCD/2% TPGS, 25 °C, aqueous with cosolvent or surfactant or cyclodextrin, 3 h
  solubility at 3 h: 5110 µg/mL (≈ 12200 µM)
5% HPBCD/2% TPGS, 25 °C, aqueous with cosolvent or surfactant or cyclodextrin, 24 h
  solubility at 24 h: 5280 µg/mL (≈ 12600 µM)
FaSSIF, 37 °C, 1.5 h
  solubility at 1.5 h: 360 µg/mL (≈ 860 µM)
FaSSIF, 37 °C, 3 h
  solubility at 3 h: 380 µg/mL (≈ 908 µM)
FaSSIF, 37 °C, 24 h
  solubility at 24 h: 350 µg/mL (≈ 837 µM)
FeSSIF, 37° C., 1.5 h
  Solubility: 910 µg/mL (≈ 2170 µM)
FeSSIF, 37° C., 3 h
  Solubility: 900 µg/mL (≈ 2150 µM)
FeSSIF, 37° C., 24 h
  Solubility: 980 µg/mL (≈ 2340 µM)
SGF, 37 °C, simulated gastric fluid, 1.5 h
  solubility at 1.5 h: 400 µg/mL (≈ 956 µM)
SGF, 37 °C, simulated gastric fluid, 3 h
  solubility at 3 h: 420 µg/mL (≈ 1000 µM)
SGF, 37 °C, simulated gastric fluid, 24 h
  solubility at 24 h: 370 µg/mL (≈ 884 µM)
Relevant biofluids, in words
  Solubility, comparison of the forms: increased solubility relative to Form II

## NC(=O)N1CCC[C@@H](N(C(=O)NCc2ccc(OC(F)(F)F)cc2F)C2CC2)C1 [Form II, (R)-3-(1-cyclopropyl-3-(2-fluoro-4-(trifluoromethoxy)benzyl)ureido) piperidine-1-carboxamide]
5% HPBCD/2% TPGS, 25° C., 1.5 h
  Solubility: 4310 µg/mL (≈ 10300 µM)
5% HPBCD/2% TPGS, 25° C., 3 h
  Solubility: 4270 µg/mL (≈ 10200 µM)
5% HPBCD/2% TPGS, 25° C., 24 h
  Solubility: 4760 µg/mL (≈ 11400 µM)
FaSSIF, 37° C., 1.5 h
  Solubility: 310 µg/mL (≈ 741 µM)
FaSSIF, 37° C., 3 h
  Solubility: 270 µg/mL (≈ 645 µM)
FaSSIF, 37° C., 24 h
  Solubility: 240 µg/mL (≈ 574 µM)
FeSSIF, 37 °C, 1.5 h
  solubility at 1.5 h: 740 µg/mL (≈ 1770 µM)
FeSSIF, 37 °C, 3 h
  solubility at 3 h: 720 µg/mL (≈ 1720 µM)
FeSSIF, 37 °C, 24 h
  solubility at 24 h: 720 µg/mL (≈ 1720 µM)
SGF, 37° C., 1.5 h
  Solubility: 260 µg/mL (≈ 621 µM)
SGF, 37° C., 3 h
  Solubility: 270 µg/mL (≈ 645 µM)
SGF, 37° C., 24 h
  Solubility: 300 µg/mL (≈ 717 µM)
